Data: PubChem BioAssay AID2060890 (Molecular Pharmacology Branch, DTP, NCI, 2025)

Tested on: LG0703-F948-PDC complex spheroid viability
Experiment: Anticancer human tumor LG0703-F948-PDC patient-derived lung adenocarcinoma cell line growth inhibition [RAS]
Conditions: for viability, T/C: stronger effect = lower value
Description: RAS pathway inhibitors in Combinations in Complex Spheroids
A high-throughput screen of multi-cell type tumor spheroids was designed to identify active combinations of RAS pathway inhibitors and targeted small molecules. Complex spheroids include a stromal component modeled by human endothelial cells (HUVEC) and fibroblasts modeled by human mesenchymal stem cells (MSCs). The concentration ranges selected for each drug and investigational agent were based upon clinically achievable concentrations if the clinical Cmax of the agent was known.
Compounds. The drugs and investigational agents: abemaciclib (NSC768073), cobimetinib (NSC768068), divarasib (GDC6063, NSC841802), docetaxel (NSC628503), GDC-1971 (RLY-1971, NSC841576), gemcitabine (NSC613327), inavolisib (NSC800729), ipatasertib (NSC767898), KB-0742 (NSC834161), MRTX-1133 (NSC836407), osimertinib (NSC779217), RMC-4630 (NSC839698), RMC-6236 (NSC851965), RMC-6291 (NSC852671), Ro-3306 (NSC812927), sapanisertib (NSC764658), SN-38 (NSC673596), staurosporine (NSC755774), SY5609 (NSC837396), and tovorafenib (DAY101, NSC766906), were obtained from the National Cancer Institute (NCI) Developmental Therapeutics Program Chemical Repository. The FDA-approved anticancer drug set is available from the NCI Developmental Therapeutics Program. […] The stock solutions were prepared in dimethyl sulfoxide (DMSO, Sigma-Aldrich, St. Louis, MO, cat. D2650) at 800-fold the tested concentration and stored at -70 degrees C prior to their use. All drugs and investigational agents were tested over a range starting from a high concentration at or near the clinical Cmax and decreasing in half-log increments. If the clinical Cmax for an agent had not been determined, the highest concentration tested was 10 microM.
Cell Culture. All cells were maintained in an incubator at 37 degrees C and 5% CO2 with 95% humidity. The PDC lines were cultured according to standard operating procedures established by the NCI PDMR. All PDCs were thawed and cultured in Matrigel-coated flasks prepared with a working solution of 1X Ham's F-12 nutrient mix, without supplementation (Invitrogen, Waltham, MA, cat. 11765054), 100 U/mL penicillin-streptomycin (Invitrogen, cat. 15140122), and 2.5% Matrigel (Corning Inc., Corning, NY, cat. 354248) for the first three passages. The 362531-283-R-J2-PDC and 782815-120-R-J1-PDC lines were cultured in 6C/Colon 1B media, which includes advanced DMEM/F-12 (Thermo Fisher Scientific, cat. 12634028), 10 mM HEPES (Thermo Fisher Scientific, cat. 15630080), 1X GlutaMAX supplement (Thermo Fisher Scientific, cat. 35050061), 0.1 mg/mL primocin (InvivoGen, San Diego, CA, cat. ant-pm-2), 10% defined fetal bovine serum, heat inactivated (HyClone Laboratories Inc., Logan, UT, cat. SH30070.03HI), 50% L-WRN conditioned media (ATCC, cat. CRL-3276), 1.25 mM N-Acetyl-L-cysteine (Sigma-Aldrich, cat. A9165), 10 mM nicotinamide (Sigma-Aldrich, cat. N0636), 1X B-27 supplement (Thermo Fisher Scientific, cat. 17504044), 1X N-2 supplement (Thermo Fisher Scientific, cat. 17502048), 50 ng/mL human EGF (Thermo Fisher Scientific, cat. PHG0311), and 10 microM Y-27632 dihydrochloride (Tocris Bioscience, cat. 1254). The K12877-001-R-J1-PDC line was cultured in 6I media, which includes all 6C/Colon 1B media plus 10 ng/mL human FGF-10 (PeproTech, cat. 100-26), 1 ng/mL human FGF-2 (PeproTech, cat. 100-18B), 1 µM prostaglandin E2 (Tocris Bioscience, cat. 2296), […] hydrocortisone (Sigma-Aldrich, cat. H4001), and […] bovine insulin (Sigma-Aldrich, cat. I6634). The K86415-001-R-J1-PDC line was cultured in 6D media, which includes all 6C/Colon 1B media components minus the L-WRN conditioned media. The 485176-168-R4-J1-PDC was cultured in PANC media, which includes all 6C/Colon 1B media plus 100 ng/mL human FGF-10 (PeproTech, cat. 100-26), 500 nM SB-431542 (Selleckchem, cat. S1067), and 10 nM gastrin (Tocris Bioscience, cat. 3006). […]
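Also: spheroids exposed to agents for 7 days.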
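For viability, T/C in this document: 100% = DMSO vehicle wells.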

Question: How did the viability, T/C (compound 0.0316 µM) turn out when `CC(=O)OC12COC1CC(O)C1(C)C(=O)C(O)C3=C(C)C(OC(=O)C(O)C(NC(=O)OC(C)(C)C)c4ccccc4)CC(O)(C(OC(=O)c4ccccc4)C21)C3(C)C` (centres undefined) was run?
Answer: The viability, T/C was 37.1% [middle of 4 runs].

Question: What about the viability, T/C (compound 0.1 µM) of the same compound?
Answer: Its viability, T/C is 33.9% [middle of 4 runs].

Question: What about the viability, T/C (compound 0.316 µM) of the same compound?
Answer: The viability, T/C was 39.8% [middle of 4 runs].

Question: And the viability, T/C (compound 1 µM)?
Answer: The viability, T/C was 39.7% [middle of 4 runs].

Question: What about the viability, T/C (compound 3.16 µM) of the same compound?
Answer: Its viability, T/C is 43.2% [middle of 4 runs].

Question: And the viability, T/C (compound 10 µM)?
Answer: Its viability, T/C is 44.4% [middle of 4 runs].

Question: What about the IC50 (curve of compound) of the same compound?
Answer: The IC50 was under 31.6 nM.

Question: For `CC(Nc1ccc2c(c1)OCCn1cc(N3C(=O)OCC3C(F)F)nc1-2)C(N)=O` (centres undefined) + CCn1c(-c2cc(N3CCN(C)CC3)cnc2C(C)OC)c2c3cc(ccc31)-c1csc(n1)CC(NC(=O)C1CC1C)C(=O)N1CCCC(N1)C(=O)OCC(C)(C)C2, which IC50 (curve of first compound, second compound 0.000949 µM) is on record?
Answer: Its IC50 is 136 nM.

Question: What about the IC50 (curve of first compound, second compound 0.003 µM) of the same compound?
Answer: The IC50 was under 31.6 nM.

Question: What about the IC50 (curve of first compound, second compound 0.00949 µM) of the same compound?
Answer: The IC50 was under 31.6 nM.

Question: And the IC50 (curve of first compound, second compound 0.03 µM)?
Answer: The IC50 was under 31.6 nM.

Question: What about the IC50 (curve of first compound, second compound 0.0949 µM) of the same compound?
Answer: The IC50 was under 31.6 nM.

Question: And the IC50 (curve of first compound, second compound 0.3 µM)?
Answer: Its IC50 is under 31.6 nM.

Question: And the viability, T/C (second compound 0.000949 µM, first compound 0.0316 µM)?
Answer: Its viability, T/C is 66.8%.

Question: What about the viability, T/C (second compound 0.000949 µM, first compound 0.1 µM) of the same compound?
Answer: The viability, T/C was 55%.

Question: What about the viability, T/C (second compound 0.000949 µM, first compound 0.316 µM) of the same compound?
Answer: The viability, T/C was 37.9%.

Question: And the viability, T/C (second compound 0.000949 µM, first compound 1 µM)?
Answer: Its viability, T/C is 22.5%.

Question: And the viability, T/C (second compound 0.000949 µM, first compound 3.16 µM)?
Answer: The viability, T/C was 16.8%.

Question: What about the viability, T/C (second compound 0.000949 µM, first compound 10 µM) of the same compound?
Answer: The viability, T/C was 8.97%.

Question: And the viability, T/C (second compound 0.003 µM, first compound 0.0316 µM)?
Answer: The viability, T/C was 38.7%.

Question: And the viability, T/C (second compound 0.003 µM, first compound 0.1 µM)?
Answer: Its viability, T/C is 31.1%.

Question: What about the viability, T/C (second compound 0.003 µM, first compound 0.316 µM) of the same compound?
Answer: The viability, T/C was 20.2%.

Question: And the viability, T/C (second compound 0.003 µM, first compound 1 µM)?
Answer: Its viability, T/C is 12.6%.

Question: And the viability, T/C (second compound 0.003 µM, first compound 3.16 µM)?
Answer: The viability, T/C was 8.64%.

Question: And the viability, T/C (second compound 0.003 µM, first compound 10 µM)?
Answer: Its viability, T/C is 3.86%.

Question: And the viability, T/C (second compound 0.00949 µM, first compound 0.0316 µM)?
Answer: Its viability, T/C is 20.7%.

Question: What about the viability, T/C (second compound 0.00949 µM, first compound 0.1 µM) of the same compound?
Answer: The viability, T/C was 16.5%.

Question: And the viability, T/C (second compound 0.00949 µM, first compound 0.316 µM)?
Answer: Its viability, T/C is 7.46%.

Question: What about the viability, T/C (second compound 0.00949 µM, first compound 1 µM) of the same compound?
Answer: The viability, T/C was 5.56%.

Question: And the viability, T/C (second compound 0.00949 µM, first compound 3.16 µM)?
Answer: Its viability, T/C is 4.28%.

Question: What about the viability, T/C (second compound 0.00949 µM, first compound 10 µM) of the same compound?
Answer: Its viability, T/C is 1.67%.

Question: And the viability, T/C (second compound 0.03 µM, first compound 0.0316 µM)?
Answer: Its viability, T/C is 10.8%.

Question: And the viability, T/C (second compound 0.03 µM, first compound 0.1 µM)?
Answer: Its viability, T/C is 8.93%.

Question: And the viability, T/C (second compound 0.03 µM, first compound 0.316 µM)?
Answer: Its viability, T/C is 4%.

Question: And the viability, T/C (second compound 0.03 µM, first compound 1 µM)?
Answer: The viability, T/C was 3.07%.

Question: What about the viability, T/C (second compound 0.03 µM, first compound 3.16 µM) of the same compound?
Answer: The viability, T/C was 1.45%.

Question: What about the viability, T/C (second compound 0.03 µM, first compound 10 µM) of the same compound?
Answer: Its viability, T/C is 1.14%.

Question: And the viability, T/C (second compound 0.0949 µM, first compound 0.0316 µM)?
Answer: The viability, T/C was 8.21%.

Question: What about the viability, T/C (second compound 0.0949 µM, first compound 0.1 µM) of the same compound?
Answer: Its viability, T/C is 5.47%.

Question: And the viability, T/C (second compound 0.0949 µM, first compound 0.316 µM)?
Answer: Its viability, T/C is 3.07%.

Question: What about the viability, T/C (second compound 0.0949 µM, first compound 1 µM) of the same compound?
Answer: Its viability, T/C is 2.1%.

Question: And the viability, T/C (second compound 0.0949 µM, first compound 3.16 µM)?
Answer: The viability, T/C was 1.39%.

Question: And the viability, T/C (second compound 0.0949 µM, first compound 10 µM)?
Answer: The viability, T/C was 0.7%.

Question: What about the viability, T/C (second compound 0.3 µM, first compound 0.0316 µM) of the same compound?
Answer: Its viability, T/C is 6.47%.

Question: What about the viability, T/C (second compound 0.3 µM, first compound 0.1 µM) of the same compound?
Answer: Its viability, T/C is 4.12%.

Question: What about the viability, T/C (second compound 0.3 µM, first compound 0.316 µM) of the same compound?
Answer: Its viability, T/C is 2.78%.

Question: And the viability, T/C (second compound 0.3 µM, first compound 1 µM)?
Answer: Its viability, T/C is 2.27%.

Question: What about the viability, T/C (second compound 0.3 µM, first compound 3.16 µM) of the same compound?
Answer: The viability, T/C was 1.25%.

Question: What about the viability, T/C (second compound 0.3 µM, first compound 10 µM) of the same compound?
Answer: The viability, T/C was 0.71%.
